In US20100210532A1, “USE OF NEUROPEPTIDE SF, ALONE OR IN COMBINATION WITH GLP-2, AS A THERAPEUTIC AGENT” (priority 2007, published 2010):
Where no end group is shown, it is not given here.

Tests used:
HIV-1IIIB = assay: HIV-1 antiviral assay in CEM-SS cells (MTS readout); conditions: positive controls of the HIV-1 assay
HCMV strain AD169 = assay: HCMV plaque formation assay in MRC-5 cells; conditions: for inhibition of HCMV plaque formation as compared to the virus control experiment: 10 micrograms per ml, MRC-5 cells, 7-10 days, combination 0.95 mole peptide 1 and 1.05 mole peptide 2
[1] = tested on: hepatitis B virus (HBV) ayw strain; assay: HBV experimental assay system, HepG2-2.2.15 cells, secreted HBV DNA by TaqMan PCR; assay type: cell-based; conditions: 10 micrograms per ml, six days, combination 0.95 mole peptide 1 and 1.05 mole peptide 2
Human A549 cells = assay: Apoptosis prevention assay (C2 ceramide, Annexin-5); assay type: cell-based; conditions: 10 micrograms per ml, 30 min pretreatment
[2] = tested on: Tumor Necrosis Factor-α (TNF-α); assay: Th1/Th2 cytokine profiling assay, TNF-α; assay type: cell-based, mouse; conditions: 10 micrograms per ml, Ovalbumin-restimulated Balb/c spleen cells, 72 hours; for production of TNF-alpha in murine spleen cells, induced by: combination 0.95 mole peptide 1 and 1.05 mole peptide 2
Source text: (§1) The Balb/c mice (originated in 1923, it is a popular strain and is used in many different research disciplines. […] On day 50, spleens of the mice were harvested (3 weeks after last boost with Ovalbumin). […] This kit can be used to measure Interleukin-2 (IL-2), Interleukin-4 (IL-4), Interleukin-5 (IL-5), Interferon-γ (IFN-γ), and Tumor Necrosis Factor-α (TNF-α) protein levels in a single sample. The kit performance has been optimized for analysis of physiologically relevant concentrations ([…] levels) of specific cytokine proteins in tissue culture supernatants and serum samples.

Interferon-γ (IFN-γ) = assay: Th1/Th2 cytokine profiling assay, IFN-γ; assay type: cell-based, mouse; conditions: 10 micrograms per ml, Ovalbumin-restimulated Balb/c spleen cells, 72 hours
Source text: as §1

Interleukin-2 (IL-2) = assay: Th1/Th2 cytokine profiling assay, IL-2; assay type: cell-based, mouse; conditions: 10 micrograms per ml, Ovalbumin-restimulated Balb/c spleen cells, 72 hours; for production of IL-2 in murine spleen cells, induced by: combination 0.95 mole peptide 1 and 1.05 mole peptide 2
Source text: as §1

Interleukin-4 (IL-4) = assay: Th1/Th2 cytokine profiling assay, IL-4; assay type: cell-based, mouse; conditions: 10 micrograms per ml, Ovalbumin-restimulated Balb/c spleen cells, 72 hours; for production of IL-4 in murine spleen cells, induced by: combination 0.95 mole peptide 1 and 1.05 mole peptide 2
Source text: as §1

Interleukin-5 (IL-5) = assay: Th1/Th2 cytokine profiling assay, IL-5; assay type: cell-based, mouse; conditions: 10 micrograms per ml, Ovalbumin-restimulated Balb/c spleen cells, 72 hours; for change of the production of IL-5 in murine spleen cells: combination 0.95 mole peptide 1 and 1.05 mole peptide 2
Source text: as §1

[3] = tested on: Primary Human endothelial cells (HUVEC); assay: Endothelial cell migration assay; assay type: cell-based; conditions: 10 micrograms per ml, 22 hours
HUVEC = assay: Endothelial tube formation assay; assay type: cell-based, human; conditions: 10 micrograms per ml, 20 hours
Procedure: The endothelial tube formation assay is based on the ability of endothelial cells to form three-dimensional capillary-like tubular structures when cultured on a gel of basement membrane extract. The endothelial tube formation assay represents a powerful model for studying inhibition and induction of angiogenesis. Pre-labeled HUVEC with Calcein AM were seeded in a 96-well culture plate coated with extracellular metrix (Chemicon international Cat. ECM625) and treated with test peptides-10 micrograms per ml-in full growth medium. […] control was vehicle only. […] Duplicate wells for each treatment were photographed and quantitatevily analyzed for an average tubule length using image analysis software ImageProPlus. Raw data were expressed as average tubule […]±standard deviation. Statistic p values were computed using the Student's t-test.

Molecule: Cc1cn([C@H]2C[C@H](N=[N+]=[N-])[C@@H](CO)O2)c(=O)[nH]c1=O [AZT]
- antiviral activity of positive control compounds (HIV-1IIIB): expected levels of antiviral activity

Molecule: Nc1nc(O)c2ncn(COC(CO)CO)c2n1 [Ganciclovir, reference compound]
- antiviral activity of positive control compound (HCMV strain AD169; positive control of the HCMV assay): expected levels of antiviral activity

Molecule: CC(C)(C)NC(=O)[C@@H]1CN(Cc2cccnc2)CCN1C[C@@H](O)C[C@@H](Cc1ccccc1)C(=O)N[C@H]1c2ccccc2C[C@H]1O [indinavir]
- antiviral activity of positive control compounds (HIV-1IIIB): expected levels of antiviral activity

Molecule: His-Ala-Asp-Gly-Ser-Phe-Ser-Asp-Glu-Met-Asn-Thr-Ile-Leu-Asp-Asn-Leu-Ala-Ala-Arg-Asp-Phe-Ile-Asn-Trp-Leu-Ile-Gln-Thr-Lys-Ile-Thr-Asp-OH [Peptide 2]
- inhibition of HBV replication as compared to the virus control infection [1]: 59.2%
- reduction of the ceramide-induced apoptosis on human lung cells (Human A549 cells): did not reduce
- TNF-a spleen cells; TH1 response (% of control) [2]: 143.7 % of control
- production of TNF-alpha in murine spleen cells, induced by [2]: 43.7%
- IFNγ spleen cells; TH1 response (% of control) (Interferon-γ (IFN-γ)): 132.7 % of control
- production of IFN-γ in murine spleen cells, induced by (Interferon-γ (IFN-γ); combination 0.95 mole peptide 1 and 1.05 mole peptide 2): 32.7%
- IL-2 spleen cells (% of control) (Interleukin-2 (IL-2)): 183.3 % of control
- production of IL-2 in murine spleen cells, induced by (Interleukin-2 (IL-2)): 83.3%
- IL-4 spleen cells; TH2 response (% of control) (Interleukin-4 (IL-4)): 104.4 % of control
- production of IL-4 in murine spleen cells, induced by (Interleukin-4 (IL-4)): did not significantly change
- IL-5 spleen cells; TH2 response (% of control) (Interleukin-5 (IL-5)): 108.4 % of control
- change of the production of IL-5 in murine spleen cells (Interleukin-5 (IL-5)): did not significantly change
- inhibition of the migration of human endothelial cells [3]: did not inhibit
- inhibition of the tube formation of human endothelial cells (HUVEC): 12%
- inhibition of HCMV plaque formation as compared to the virus control experiment (HCMV strain AD169): 18.8%

Molecule: Ser-Gln-Ala-Phe-Leu-Phe-Gln-Pro-Gln-Arg-Phe-NH2 (SQAFLFQPQRF-NH2) [Peptide 1]
- inhibition of HBV replication as compared to the virus control infection [1]: 16.7%
- reduction of the ceramide-induced apoptosis on human lung cells (Human A549 cells): 16.45%
- TNF-a spleen cells; TH1 response (% of control) [2]: 106.3 % of control
- production of TNF-alpha in murine spleen cells, induced by [2]: did not significantly change
- IFNγ spleen cells; TH1 response (% of control) (Interferon-γ (IFN-γ)): 68.0 % of control
- production of IFN-γ in murine spleen cells, decreased by (Interferon-γ (IFN-γ)): 32.0%
- IL-2 spleen cells (% of control) (Interleukin-2 (IL-2)): 112.4 % of control
- production of IL-2 in murine spleen cells, induced by (Interleukin-2 (IL-2)): did not significantly change
- IL-4 spleen cells; TH2 response (% of control) (Interleukin-4 (IL-4)): 242.2 % of control
- production of IL-4 in murine spleen cells, induced by (Interleukin-4 (IL-4)): 142.2%
- IL-5 spleen cells; TH2 response (% of control) (Interleukin-5 (IL-5)): 91.6 % of control
- change of the production of IL-5 in murine spleen cells (Interleukin-5 (IL-5)): did not significantly change
- inhibition of the migration of human endothelial cells [3]: 33%
- inhibition of the tube formation of human endothelial cells (HUVEC): 19%
- inhibition of HCMV plaque formation as compared to the virus control experiment (HCMV strain AD169): 31.3%
